Assay results taken from patent US20230348453A1, “HALOGENATED-HETEROARYL AND OTHER HETEROCYCLIC KINASE INHIBITORS, AND USES THEREOF” (iOmx Therapeutics AG, priority 2020, published 2023).

Columns and labels:
[1] = tested on: human breast skin explants; assay: Human skin explant eumelanisation
[2] = tested on: M579-A2-luc melanoma tumour cells; assay: Luciferase-based TNF killing assay; type: cell-based, human; conditions: TNF 10 ng/mL; inhibitor between about 10 and 100 nM
Description: PANC1-luc is an HLA-A2.1+ luciferase-expressing pancreatic adenocarcinoma (PDAC) tumour cell line, and M579-A2-luc is an HLA-A2.1+ luciferase-expressing melanoma tumour cell line.
After lysis, luciferase assay buffer is added and immediately the luciferase intensity was measured by using the TECAN-Spark microplate reader.

| SMILES | gross pigmentation of human skin explants, passive topical application ([1]; 8 days (1×/day)) | melanin content (Fontana-Masson staining), passive application ([1]; compared to control) | gross pigmentation of human skin explants, mechanical application ([1]; rubbing via an applicator) | cytotoxicity in the presence of TNF compared to inhibitor alone [2] |
| --- | --- | --- | --- | --- |
| COc1ccc(N(C(=O)Nc2c(C)cccc2C)c2cc(Nc3ccc(N4CCN(C)CC4)cc3)ncn2)c(OC)c1 [HG 9-91-01] | no significant gross pigmentation | marginally increased melanin | induces significant gross pigmentation | – |
| COc1c(F)cccc1NC(=O)c1cnc(Nc2cc(N3CCN(CCO)CC3)nc(C)n2)s1 [Compound B4, N-(3-fluoro-2-methoxyphenyl)-2-((6-(4-(2-hydroxyethyl)piperazin-1-yl)-2-methylpyrimidin-4-yl)amino)thiazole-5-carboxamide] | – | – | – | fails to exhibit cytotoxicity |
| Cc1nc(Nc2ncc(C(=O)Nc3c(Cl)cccc3Br)s2)cc(N2CCN(CCO)CC2)n1 [Compound B1, N-(2-bromo-6-chlorophenyl)-2-((6-(4-(2-hydroxyethyl)piperazin-1-yl)-2-methylpyrimidin-4-yl)amino)thiazole-5-carboxamide] | – | – | – | increased cytotoxicity |
| CCOc1cccc(Cl)c1NC(=O)c1cnc(Nc2cc(N3CCN(CCO)CC3)nc(C)n2)s1 [Compound B8, N-(2-chloro-6-ethoxyphenyl)-2-((6-(4-(2-hydroxyethyl)piperazin-1-yl)-2-methylpyrimidin-4-yl)amino)thiazole-5-carboxamide] | – | – | – | fails to exhibit cytotoxicity |
